From patent US12115178B2, “Acylated active agents and methods of their use for the treatment of autoimmune disorders” (Flagship Pioneering Innovations V, Inc., priority 2018, dated 2024)

Columns and labels:
Type in all cases: in vitro ADME
[1] = Assay 2. Stability in Simulated Intestinal Fluid (SIF); settings: SIF pH 6.7 with pancreatin, 1 μM, 37° C.
Summary of the method: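 Degradation rates came from LC/MS of acetonitrile-quenched samples drawn at intervals, starting at T0. The medium was freshly made pH 6.7 FaSSIF containing pancreatin, and test compound was present at 1 µM while being shaken at 37 °C.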

[2] = Assay 3. In vitro Colonic Material Stability Assay; settings: colonic material slurry, anaerobic, 1 or 10 μM
[3] = Assay 1. Stability in Simulated Gastric Fluid (SGF)
Summary of the method: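 Degradation rate from LC/MS of acetonitrile-quenched aliquots (T0, then regular intervals). Fresh SGF (pH 1.6 NaCl, FaSSIF powder, pepsin 0.1 mg/mL) held compound at 1 μM final, 37° C; 1 mM DMSO stock.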

[4] = SGF pH 1.6 with pepsin, 1 μM, 37° C.

CCCC(=O)O[C@H]1[C@@H](Oc2ccc(N)cc2C(=O)O)OC[C@@H](OC(=O)CCC)[C@H]1OC(=O)CCC [Compound 185, 5-amino-2-(((2R,3R,4R,5R)-3,4,5-tris(butyryloxy)tetrahydro-2H-pyran-2-yl)oxy)benzoic acid]
Assay 2 (SIF) (% @ Remaining 4 hours) [1]: B (25-75% of the tested compound remaining) | Assay 3 (% Remaining at 24 h) [2]: B (25-75% of the tested compound remaining) | Assay 1 (SGF) (% Remaining @ 1 hour) [3, 4]: C (>75% of the tested compound remaining)

CCC(=O)OC[C@H]1O[C@H](OC)[C@H](OC(=O)CC)[C@@H](OC(=O)CC)[C@@H]1OC(=O)CC [Compound 55, [(2R,3R,4S,5R,6S)-6-methoxy-3,4,5-tris(propanoyloxy)oxan-2-yl]methyl propanoate]
Assay 2 (SIF) (% @ Remaining 4 hours) [1]: A (<25% of the tested compound remaining) | Assay 3 (% Remaining at 24 h) [2]: A (<25% of the tested compound remaining) | Assay 1 (SGF) (% Remaining @ 1 hour) [3, 4]: C (>75% of the tested compound remaining)

CCCC(=O)O[C@@H]1[C@@H](OC(=O)CCC)[C@H](Oc2ccccc2C(=O)O)OC[C@H]1OC(=O)CCC [Compound 186, 2-{[(2S,3R,4S,5R)-3,4,5-tris(butanoyloxy)oxan-2-yl]oxy}benzoic acid]
Assay 2 (SIF) (% @ Remaining 4 hours) [1]: A (<25% of the tested compound remaining) | Assay 3 (% Remaining at 24 h) [2]: A (<25% of the tested compound remaining) | Assay 1 (SGF) (% Remaining @ 1 hour) [3, 4]: C (>75% of the tested compound remaining)

CCCC(=O)O[C@@H]1[C@@H](OC(=O)CCC)[C@H](C)O[C@@H](Oc2ccccc2C(=O)O)[C@@H]1OC(=O)CCC [Compound 40, 2-(((2S,3R,4R,5S,6S)-3,4,5-tris(butyryloxy)-6-methyltetrahydro-2H-pyran-2-yl)oxy)benzoic acid]
Assay 2 (SIF) (% @ Remaining 4 hours) [1]: C (>75% of the tested compound remaining) | Assay 3 (% Remaining at 24 h) [2]: C (>75% of the tested compound remaining) | Assay 1 (SGF) (% Remaining @ 1 hour) [3, 4]: C (>75% of the tested compound remaining)

CCCC(=O)Oc1ccc(-c2cc(=O)c3c(OC(=O)CCC)cc(OC(=O)CCC)cc3o2)cc1 [Compound 170, 5-(butanoyloxy)-2-[4-(butanoyloxy)phenyl]-4-oxo-4H-chromen-7-yl butanoate]
Assay 2 (SIF) (% @ Remaining 4 hours) [1]: A (<25% of the tested compound remaining) | Assay 3 (% Remaining at 24 h) [2]: A (<25% of the tested compound remaining) | Assay 1 (SGF) (% Remaining @ 1 hour) [3, 4]: B (25-75% of the tested compound remaining)

CCC(=O)O[C@@H]1[C@@H](OC(=O)CC)[C@H](C)O[C@@H](OC(=O)/C=C/c2c[nH]c3ccccc23)[C@@H]1OC(=O)CC [Compound 102, (2S,3R,4R,5S,6S)-6-methyl-3,4,5-tris(propanoyloxy)oxan-2-yl (2E)-3-(1H-indol-3-yl)prop-2-enoate]
Assay 2 (SIF) (% @ Remaining 4 hours) [1]: B (25-75% of the tested compound remaining) | Assay 3 (% Remaining at 24 h) [2]: A (<25% of the tested compound remaining) | Assay 1 (SGF) (% Remaining @ 1 hour) [3, 4]: C (>75% of the tested compound remaining)

CCCC(=O)O[C@H]1[C@H](OC)OC[C@@H](OC(=O)CCC)[C@H]1OC(=O)CCC [Compound 50, (2R,3R,4R,5R)-3,5-bis(butanoyloxy)-2-methoxyoxan-4-yl butanoate]
Assay 2 (SIF) (% @ Remaining 4 hours) [1]: A (<25% of the tested compound remaining) | Assay 3 (% Remaining at 24 h) [2]: A (<25% of the tested compound remaining) | Assay 1 (SGF) (% Remaining @ 1 hour) [3, 4]: C (>75% of the tested compound remaining)

CCC(=O)OC[C@H]1O[C@@H](OC(=O)CCc2c[nH]c3ccccc23)[C@H](OC(=O)CC)[C@@H](OC(=O)CC)[C@@H]1OC(=O)CC [Compound 112, [(2R,3R,4S,5R,6S)-6-{[3-(1H-indol-3-yl)propanoyl]oxy}-3,4,5-tris(propanoyloxy)oxan-2-yl]methyl propanoate]
Assay 2 (SIF) (% @ Remaining 4 hours) [1]: A (<25% of the tested compound remaining) | Assay 3 (% Remaining at 24 h) [2]: A (<25% of the tested compound remaining) | Assay 1 (SGF) (% Remaining @ 1 hour) [3, 4]: C (>75% of the tested compound remaining)

CCC(=O)O[C@@H]1[C@@H](OC(=O)CC)[C@H](OC(=O)CCc2c[nH]c3ccccc23)OC[C@@H]1OC(=O)CC [Compound 74, (2S,3R,4S,5S)-3,4,5-tris(propanoyloxy)oxan-2-yl 3-(1H-indol-3-yl)propanoate]
Assay 2 (SIF) (% @ Remaining 4 hours) [1]: A (<25% of the tested compound remaining) | Assay 3 (% Remaining at 24 h) [2]: A (<25% of the tested compound remaining) | Assay 1 (SGF) (% Remaining @ 1 hour) [3, 4]: C (>75% of the tested compound remaining)

CCC(=O)O[C@@H]1[C@@H](OC(=O)CC)[C@@H](OC)OC[C@@H]1OC(=O)CC [Compound 53, (2S,3R,4S,5S)-2-methoxy-3,5-bis(propanoyloxy)oxan-4-yl propanoate]
Assay 2 (SIF) (% @ Remaining 4 hours) [1]: B (25-75% of the tested compound remaining) | Assay 3 (% Remaining at 24 h) [2]: C (>75% of the tested compound remaining) | Assay 1 (SGF) (% Remaining @ 1 hour) [3, 4]: C (>75% of the tested compound remaining)

CC(=O)O[C@H]1OC[C@H](OC(C)=O)[C@H](OC(C)=O)[C@H]1OC(C)=O [Compound 219, (2R,3R,4S,5S)-tetrahydro-2H-pyran-2,3,4,5-tetrayl tetraacetate]
Assay 2 (SIF) (% @ Remaining 4 hours) [1]: A (<25% of the tested compound remaining) | Assay 3 (% Remaining at 24 h) [2]: A (<25% of the tested compound remaining) | Assay 1 (SGF) (% Remaining @ 1 hour) [3, 4]: C (>75% of the tested compound remaining)

O=C(CCc1c[nH]c2ccccc12)O[C@@H]1O[C@H](C(=O)O)[C@@H](OC(=O)CCc2c[nH]c3ccccc23)[C@H](OC(=O)CCc2c[nH]c3ccccc23)[C@H]1OC(=O)CCc1c[nH]c2ccccc12 [Compound 49, (2S,3S,4S,5R,6S)-3,4,5,6-tetrakis({[3-(1H-indol-3-yl)propanoyl]oxy})oxane-2-carboxylic acid]
Assay 2 (SIF) (% @ Remaining 4 hours) [1]: A (<25% of the tested compound remaining) | Assay 3 (% Remaining at 24 h) [2]: A (<25% of the tested compound remaining) | Assay 1 (SGF) (% Remaining @ 1 hour) ([3]; Run 1, SGF): B (25-75% of the tested compound remaining) | Assay 1 (SGF) (% Remaining @ 1 hour) ([3]; Run 2, SGF): C (>75% of the tested compound remaining)

CC(=O)O[C@H]1O[C@H](C(=O)O)[C@@H](OC(C)=O)[C@H](OC(C)=O)[C@H]1OC(C)=O [Compound 163, (2S,3S,4S,5R,6R)-3,4,5,6-tetraacetoxytetrahydro-2H-pyran-2-carboxylic acid]
Assay 2 (SIF) (% @ Remaining 4 hours) [1]: C (>75% of the tested compound remaining) | Assay 3 (% Remaining at 24 h) [2]: B (25-75% of the tested compound remaining) | Assay 1 (SGF) (% Remaining @ 1 hour) [3, 4]: C (>75% of the tested compound remaining)

CCC(=O)Oc1cc(OC(=O)CC)c2c(=O)c(O)c(-c3ccc(OC(=O)CC)c(OC(=O)CC)c3)oc2c1 [Compound 165, 2-[3,4-bis(propanoyloxy)phenyl]-3-hydroxy-4-oxo-7-(propanoyloxy)-4H-chromen-5-yl propanoate]
Assay 2 (SIF) (% @ Remaining 4 hours) [1]: A (<25% of the tested compound remaining) | Assay 3 (% Remaining at 24 h) [2]: A (<25% of the tested compound remaining) | Assay 1 (SGF) (% Remaining @ 1 hour) [3, 4]: B (25-75% of the tested compound remaining)

CCC(=O)OC[C@H]1O[C@H](OC)[C@H](OC(=O)CC)[C@@H](OC(=O)CC)[C@H]1OC(=O)CC [Compound 57, [(2R,3S,4S,5R,6S)-6-methoxy-3,4,5-tris(propanoyloxy)oxan-2-yl]methyl propanoate]
Assay 2 (SIF) (% @ Remaining 4 hours) [1]: A (<25% of the tested compound remaining) | Assay 3 (% Remaining at 24 h) [2]: A (<25% of the tested compound remaining) | Assay 1 (SGF) (% Remaining @ 1 hour) [3, 4]: C (>75% of the tested compound remaining)

CCC(=O)O[C@@H]1[C@@H](OC(=O)CC)[C@H](C)O[C@H](OC(=O)/C=C/c2c[nH]c3ccccc23)[C@@H]1OC(=O)CC [Compound 107, (2R,3R,4R,5S,6S)-6-methyl-3,4,5-tris(propanoyloxy)oxan-2-yl (2E)-3-(1H-indol-3-yl)prop-2-enoate]
Assay 2 (SIF) (% @ Remaining 4 hours) [1]: A (<25% of the tested compound remaining) | Assay 3 (% Remaining at 24 h) [2]: B (25-75% of the tested compound remaining) | Assay 1 (SGF) (% Remaining @ 1 hour) [3, 4]: B (25-75% of the tested compound remaining)

CCC(=O)O[C@@H]1[C@@H](OC(=O)CC)[C@@H](OC(=O)CC)C(O)O[C@H]1C (stereo partly drawn) [Compound 113, (3R,4R,5S,6S)-2-hydroxy-6-methyl-4,5-bis(propanoyloxy)oxan-3-yl propanoate]
Assay 2 (SIF) (% @ Remaining 4 hours) [1]: A (<25% of the tested compound remaining) | Assay 3 (% Remaining at 24 h) [2]: C (>75% of the tested compound remaining) | Assay 1 (SGF) (% Remaining @ 1 hour) [3, 4]: C (>75% of the tested compound remaining)

CCC(=O)O[C@@H]1[C@@H](OC(=O)CC)[C@@H](OC(=O)Cc2c[nH]c3ccccc23)OC[C@H]1OC(=O)CC [Compound 117, (2R,3R,4S,5R)-2-{[2-(1H-indol-3-yl)acetyl]oxy}-4,5-bis(propanoyloxy)oxan-3-yl propanoate]
Assay 2 (SIF) (% @ Remaining 4 hours) [1]: A (<25% of the tested compound remaining) | Assay 3 (% Remaining at 24 h) [2]: A (<25% of the tested compound remaining) | Assay 1 (SGF) (% Remaining @ 1 hour) [3, 4]: C (>75% of the tested compound remaining)
